As a reminder, the IC50 is the midpoint of a concentration-inhibition curve.

The record followed here is article PMC12661400, “Oral bioavailable ITRI-148 degrades androgen receptor variants and overcomes antiandrogen resistance in advanced prostate cancer” (Neoplasia (New York, N.Y.), 2025).

Holding throughout (type): cell-based
One assay deals with LNCaP95. Description: MTT cell viability, 7 days. To be noted: LNCaP-95, 168 h. Here is the method:
(§1) Cells were seeded in 96-well plates and treated with drugs the next day. After 7 days, viability was assessed using MTT assay.
(§2) (C) Western blot analysis of AR and AR-V7 in C4-2B and C4-2B/MDVR cells after 48-hour ITRI-148 treatment. […] DEGs were determined relative to DMSO or pLKO.1 vector control. […] RPL13A was used for normalization. […] AR, AR-V7, and PSA expression in the drug-treated cells were detected across treatment timepoints.

A further assay has as its system VCaP. Description: MTT cell viability, 7 days. The settings on record: Homo sapiens, 168 h. Here is the method: as §1, §2
The test system of the next assay is LNCaP. Description: MTT cell viability, 7 days. To be noted: Homo sapiens, 168 h. Here is the method:
as §1, §2

For another assay, the system named is CWR22Rv1. Description: MTT cell viability, 7 days. To be noted: 168 h. The protocol: as §1, §2
The test system of the next assay is AR. Description: AR degradation by immunoblotting in CRPC cells. To be noted: 10 μM. Here is the method: Cell lysis, Western blotting, and AR ubiquitination were performed as described in [17]. Primary antibodies: AR (Millipore 06-680), AR-V7 (RevMAb Biosciences 31-1109-00), PSA (ABclonal A4355), NKX3-1 (Cell Signaling Technology 92998), GAPDH (Cell Signaling Technology 2118) and β-Actin (Sigma-Aldrich A5441).
Fig. 1 ITRI-148 induces degradation of both AR and AR-V7 proteins in CRPC cells. […] (B) Expression of Flag-tagged AR-V7 in 293T cells following ITRI-148 treatment. Cells transiently expressing Flag-AR-V7 were pretreated with 50 μg/mL cycloheximide for 1 hour, then exposed to ITRI-148 at the indicated concentrations for 8 hours. AR-V7 expression was detected using an anti-Flag antibody. (C) Representative immunoblots showing AR protein levels in VCaP and CWR22Rv1 cells after 48 hours of ITRI-148 treatment. An N-terminal AR antibody was used to detect both full-length AR and LBD-truncated variants (AR-V(ΔLBD)) in CWR22Rv1 cells, while AR-V7 was detected using an AR-V7-specific antibody. DC₅₀ values were calculated from normalized band intensities, and Dₘₐₓ represents the maximal degradation achieved at 10 μM ITRI-148. (D) Immunofluorescence staining of AR after 24 or 48 hours of ITRI-148 treatment, detected using an N-terminal AR antibody. […] (F) Western blot analysis of ectopically expressed wild-type (WT) and mutant Myc-tagged AR in DU145 cells following 24 hours of treatment with 10 μM ITRI-148. Quantified AR levels are as indicated. TEXT PRINTED IN THE PICTURE: (C) ITRI-148: DC50 (μM) AR CWR22Rv1: 1.23 ± 1.86; DC50 (μM) AR VCaP: 0.05 ± 0.03; DC50 (μM) AR-V7 CWR22Rv1: 1.20 ± 0.92; DC50 (μM) AR-V7 VCaP: 0.02 ± 0.02; Dmax (%) AR CWR22Rv1: 65.02 ± 19.91; Dmax (%) AR VCaP: 80.49 ± 5.61; Dmax (%) AR-V7 CWR22Rv1: 72.10 ± 3.15; Dmax (%) AR-V7 VCaP: 91.36 ± 2.05

As for `N#Cc1ccc(O[C@H]2CC[C@H](NC(=O)c3ccc(N4CCC(CN5CCN(c6cc7c(cc6F)C(=O)N(C6CCC(=O)NC6=O)C7=O)CC5)CC4)nn3)CC2)cc1Cl` (some centres unmarked) [ARV-110, reference compound], the IC50 in the assay on LNCaP95 is above 10 µM; in the assay on VCaP it was above 10 µM; in the assay with LNCaP, 0.74 µM; in the assay on CWR22Rv1, above 10 µM.

In the case of `CN1C(=O)CCC(N2C(=O)c3cccc(NCC(=O)N4CCC(N5CCC(C#Cc6ccc(C7CCN(C8=Nn9c(nnc9C(F)(F)F)CC8)CC7)cc6)CC5)CC4)c3C2=O)C1=O` (centres unmarked) [inactive analog of ITRI-148], the “degradation of the AR proteins (western blot)” value in the assay on AR is “failed to degrade the AR proteins”.
